Assays:
C3Tag tumors = assay: In vivo tumorigenesis experiment, C3Tag TNBC GEMM (tumor volume); parameters: species or system mouse; details: 21 days, AZD6244 20 mg/kg, sorafenib 30 mg/kg in diet
Protocol: In vivo tumorigenesis experiments: Animal handling and procedures were approved by the University of North Carolina at Chapel Hill Institutional Animal Care and Use Committee and followed the NIH guidelines. Male C3Tag mice were bred with wild type females to produce experimental offspring. Mice were examined for tumors weekly until a palpable mass was found. Treatment began the same day. Tumor size was assessed twice weekly by caliper measurements of tumor areas ((width)2×length))/2 for 21 days. Percent change of tumor volume was calculated using (Final volume−Initial Volume)/Initial Volume and graphed using R (http://www.r-project.org/). Drugs were incorporated into the diet of mice to achieve a daily dose of AZD6244 20 mg/kg and sorafenib 30 mg/kg. Food was provided ab libitum and the amount of daily food intake was pre-determined using Jackson Labs Phenome Database. Tumors at harvest were cut in half and either snap-frozen in liquid nitrogen and stored at −80° C. or placed in neutral buffered 10% formalin solution.

SUM159 cells = assay: SUM159 cell growth (Cell-Titer Glo, cell counts); type: cell-based, human; details: 5 μM MEK inhibitor (FIG. 2A)
Protocol: Cell Culture: MDA-MB-231 cells were grown in DMEM/F12 supplemented with 10% FBS. SUM-159 cells were grown in DMEM/F12 supplemented with 10% FBS 1 μg/mL hydrocortisone, and 5 μg/mL insulin. SUM159-R cells were continually grown in the presence of 5 μM AZD6244. For SILAC labeling, cells were grown for five doublings in arginine- and lysine-depleted media (as above) supplemented with either unlabeled L-arginine (42 mg/L) and L-lysine (71 mg/L) or equimolar amounts of heavy isotope labeled [13C6,15N4]arginine (Arg10) and [13C6]lysine (Lys6) (Cambridge Isotope Laboratories). Proliferation was quantified using Cell-Titer Glo Luminescent Cell Viability Assay (Promega). Fresh media containing DMSO or kinase inhibitors was added daily and experiments were performed in triplicate.

[1] = system: kinome (kinase binding to MIBs) of SUM159 cells; assay: MIB/MS kinome profiling of inhibitor-treated SUM159 cells; type: cell-based, human
From the text: Multiplexed inhibitor bead affinity chromatography: Cells and tumors were lysed and harvested as previously described (Oppermann et al., 2009). Oppermann et al., 2009 Mol Cell Proteo 8 1751-1764. Briefly, lysates were brought to 1 M NaCl and passed through columns of washed inhibitor-conjugated beads (bisindoylmaleimide-X, SB203580, lapatinib, dasatinib, purvalanol B, VI16832, PP58) to isolate protein kinases from the lysates (see Supplemental Experimental Procedures for MIBs preparation). Kinase-bound inhibitor beads were washed with high-salt buffer and 0.1% SDS before elution in 0.5% SDS solution in high heat. Proteins were purified using chloroform/methanol extraction, resuspended in 50 mM ammonium bicarbonate (pH 8.0) or 50 mM HEPES (pH 8.0) for SILAC or iTRAQ respectfully. Samples were digested overnight at 37° C. with sequencing grade modified trypsin (Promega). iTRAQ labeling of digested peptides was carried out using iTRAQ 4-plex reagent (AB SCIEX) for 2 hrs at room temperature in the dark. Peptides were dried down, separated using Strong Cation Exchange Spin Columns, Mini and isolated with PepClean C-18 Spin Columns (Thermo Scientific).
LC-MS/MS analysis: MS and MS/MS data were acquired using a MALDI TOF/TOF 5800 (AB SCIEX). Peptides were analyzed using ProteinPilot Software Version 3.0 (AB SCIEX) and identification using UniProtKB/Swiss-Prot database (release Oct. 15, 2009). Proteins were only accepted when at least 1 unique peptide was identified at 99% confidence. ProteinPilot software 3.0 identified and quantified changes in kinase binding to MIBs utilizing the Pro Group Algorithm. […] For each protein ratio reported, a p-value is computed based on Student's t-distribution under the null hypothesis that the protein ratio is 1. MIB/MS analysis with cell lines was done in 2-3 independent experiments. A set of three independent experiments using SILAC labeled SUM159 cells treated with AZD6244 or DMSO was used to assess statistical significance and reproducibility of MIBs/MS to profile kinome response (Supplementary Methods).
Cells were lysed on ice for 20 minutes in lysis buffer containing 50 mM HEPES (pH 7.5), 0.5% Triton X-100, 150 mM NaCl, 1 mM EDTA, 1 mM EGTA, 10 mM sodium fluoride, 2.5 mM sodium orthovanadate, 50 ng/mL calyculin A, 1× protease inhibitor cocktail (Roche), and 1% each of phosphatase inhibitor cocktails 2 and 3 (Sigma). Cell lysate was sonicated (3×10 s) on ice and centrifuged for 15 minutes (13,000 rpm) at 4° C. and the supernatant was collected and syringe-filtered through a […] SFCA membrane. The filtered lysate (approximately 40 mg or protein per experiment) was brought to 1 M NaCl and pre-cleared by flowing over 500 μL of blocked and washed NHS-activated Sepharose 4 Fast Flow beads (GE Healthcare). The flow-through was collected and passed through a column of layered inhibitor-conjugated beads (Bisindoylmaleimide-X (50 μL), SB203580 (50 Lapatinib (100 μL), Dasatinib (100 μL), Purvalanol B (100 μL), VI16832 (100 μL), PP58 (100 4)) to isolate protein kinases from the lysates. Kinase-bound inhibitor beads were washed with 20 mL of high-salt buffer and 10 mL of low-salt buffer, each containing 50 mM HEPES (pH 7.5), 0.5% Triton X-100, 1 mM EDTA, 1 mM EGTA, and 10 mM sodium fluoride, and 1 M NaCl or 150 mM NaCl, respectively. A final wash of 1 mL 0.1% SDS was applied to the columns before elution in 1 mL of a 0.5% SDS solution in high heat. Elutions from all columns were combined and cysteines were alkylated by sequential incubations with DTT (final concentration 5 mM) for 20 minutes at 60° C. and iodoacetamide (final concentration 20 mM) for 30 minutes at room temperature in the dark. The elution was spin-concentrated to 100 μL and detergents were removed by a chloroform/methanol extraction. […]

[2] = 5 μM AZD6244, SILAC, TiO2 enrichment of MIB elutions

Cn1cnc2c(F)c(Nc3ccc(Br)cc3Cl)c(C(=O)NOCCO)cc21 [AZD6244]
mice with tumor regression (C3Tag tumors): 30%
growth of SUM159 cells (SUM159 cells): inhibited growth
peptides of MIB isolated kinases with decreased phosphorylation [1, 2]: 52 peptides
peptides of MIB isolated kinases with increased phosphorylation [1, 2]: 59 peptides
phosphopeptides of MIB isolated kinases with unchanged phosphorylation status [1, 2]: 365 phosphopeptides
number of kinases with time-dependent MIB binding changes ([1]; 4, 12 and 24 h exposure to AZD6244): more than 140 kinases
MEK1 binding to MIBs ([1]; 12-24 h, 5 μM AZD6244): remains largely inhibited
MEK1 and MEK2, measured by loss of MIB binding ([1]; 4 h, 5 μM AZD6244): inhibited
MEK2 binding to MIBs, AZD6244/DMSO ratio ([1]; 24 h, 5 μM AZD6244): 1
of the 40 highest expressed kinase transcripts of a patient claudin-low tumor, kinases dynamically regulated in binding to MIBs ([1]; SUM159 and/or MDA-MB-231 cells in response to AZD6244): 14 (24%)
